ChEMBL document CHEMBL1143069, “Methoxylation of 3',4'-aromatic side chains improves P-glycoprotein inhibitory and multidrug resistance reversal activities of 7,8-pyranocoumarin against cancer cells” (Bioorg Med Chem, 2008)
Active and inactive are the calls of the source. The calls are words filed in the database; no cut-off is given here.

Key:
[1] = system: K562; settings: Homo sapiens
[2] = system: K562; settings: Homo sapiens; remark: listed apart in the source
[3] = system: K562; settings: Homo sapiens; remark: listed apart in the source
[4] = system: HepG2; assay: Growth inhibition of human HepG2 cells after 72 hrs by MTT assay; type: functional, cell-based; settings: HepG2, 72 h
[5] = system: K562; assay: Growth inhibition of human K562 cells after 72 hrs by SRB assay; type: functional, cell-based; settings: K562, 72 h
[6] = system: K562; assay: Growth inhibition of doxorubicin-resistant human K562 cells after 72 hrs by SRB assay; type: functional, cell-based; settings: K562, 72 h
[7] = system: HepG2; assay: Growth inhibition of doxorubicin resistant human HepG2 cells after 72 hrs by MTT assay; type: functional, cell-based; settings: HepG2, 72 h
[8] = system: K562; assay: Effect on Pgp expression level in doxorubicin resistant human K562 cells at 8 uM after 72 hrs by Western blot; type: functional, cell-based
[9] = system: KB-V1; assay: Effect on Pgp expression level in human KB V1 cells at 4 uM after 72 hrs by Western blot; type: functional, cell-based
[10] = system: K562; assay: Inhibition of Pgp mediated Hoechst 33342 efflux in doxorubicin-resistant human K562 cells assessed as increase in cellular fluorescence of substrate at 5 uM; type: cell-based; parameters: scale not given: the % may be the effect or the level left
[11] = system: K562; assay: Effect on Pgp expression level in doxorubicin resistant human K562 cells at 20 uM after 72 hrs by Western blot; type: functional, cell-based
[12] = system: KB-V1; assay: Effect on Pgp expression level in human KB V1 cells at 20 uM after 72 hrs by Western blot; type: functional, cell-based
[13] = system: K562; assay: Effect on Pgp expression level in doxorubicin resistant human K562 cells at 4 uM after 72 hrs by Western blot; type: functional, cell-based
[14] = system: K562; assay: Inhibition of human Pgp-ATPase activity in doxorubicin-resistant K562 cells; type: cell-based
[15] = Growth inhibition of human KB3-1 cells after 72 hrs by MTT assay; type: functional, cell-based; settings: KB 3-1, 72 h
[16] = Growth inhibition of human KB V1 cells after 72 hrs by MTT assay; type: functional, cell-based; settings: KB-V1, 72 h
[17] = system: HepG2; assay: Increase in monoclonal antibody UIC2 binding to human Pgp in doxorubicin-resistant human HepG2 cells; type: cell-based
[18] = system: HepG2; assay: Effect on Pgp expression level in doxorubicin resistant human HepG2 cells at 4 uM after 72 hrs by Western blot; type: functional, cell-based
[19] = system: HepG2; assay: Inhibition of Pgp mediated Hoechst 33342 efflux in doxorubicin-resistant human HepG2 cells assessed as increase in cellular fluorescence of substrate at 5 uM; type: cell-based; parameters: scale not given: the % may be the effect or the level left
[20] = system: HepG2; assay: Effect on Pgp expression level in doxorubicin resistant human HepG2 cells at 8 uM after 72 hrs by Western blot; type: functional, cell-based
[21] = system: HepG2; assay: Effect on Pgp expression level in doxorubicin resistant human HepG2 cells at 20 uM after 72 hrs by Western blot; type: functional, cell-based
[22] = system: HepG2; assay: Inhibition of Pgp mediated Hoechst 33342 efflux in doxorubicin-resistant human HepG2 cells assessed as increase in cellular fluorescence of substrate at 10 uM; type: cell-based; parameters: scale not given: the % may be the effect or the level left
[23] = system: K562; assay: Inhibition of Pgp mediated Rh123 efflux in doxorubicin-resistant human K562 cells assessed as increase in cellular fluorescence of substrate at 10 uM; type: cell-based; parameters: scale not given: the % may be the effect or the level left
[24] = system: HepG2; assay: Inhibition of Pgp mediated Rh123 efflux in doxorubicin-resistant human HepG2 cells assessed as increase in cellular fluorescence of substrate at 10 uM; type: cell-based; parameters: scale not given: the % may be the effect or the level left
[25] = system: K562; assay: Inhibition of Pgp mediated Hoechst 33342 efflux in doxorubicin-resistant human K562 cells assessed as increase in cellular fluorescence of substrate at 10 uM; type: cell-based; parameters: scale not given: the % may be the effect or the level left

SMILES: CC(=O)[C@H]1CC[C@H]2[C@@H]3CCC4=CC(=O)CC[C@]4(C)[C@H]3CC[C@]12C
- Km [1]: 9.97 µM
- Km [2]: 6.57 µM

SMILES: COc1ccc(CCN(C)CCC[C@](C#N)(c2ccc(OC)c(OC)c2)C(C)C)cc1OC
- Km [3]: 0.89 µM
- Km [1]: 0.7 µM

SMILES: COc1ccc(/C=C/C(=O)OC2c3c(ccc4ccc(=O)oc34)OC(C)(C)C2OC(=O)/C=C/c2ccc(OC)cc2)cc1 (racemic)
- IC50 [4]: 55200 nM
- IC50 [5]: 67.6 µM
- IC50 [6]: 81 µM
- IC50 [7]: 72.6 µM

SMILES: COc1ccc(/C=C/C(=O)OC2c3c(ccc4ccc(=O)oc34)OC(C)(C)C2OC(=O)/C=C/c2ccc(OC)c(OC)c2)cc1OC (racemic)
- Activity [8]: inactive
- IC50 [4]: 54700 nM
- Activity [9]: inactive
- Activity [10]: 200%
- Activity [11]: inactive
- Activity [12]: inactive
- Activity [13]: inactive
- Activity [14]: Active
- IC50 [15]: 61.7 µM
- IC50 [16]: 32.3 µM
- Activity [17]: Active
- Activity [18]: inactive
- Activity [19]: 200%
- IC50 [5]: 54.4 µM
- Activity [20]: inactive
- Activity [21]: inactive
- IC50 [6]: 70 µM
- IC50 [7]: 76.3 µM

SMILES: CC1(C)Oc2ccc3ccc(=O)oc3c2C(OC(=O)/C=C/c2ccccc2)C1OC(=O)/C=C/c1ccccc1 (racemic)
- Activity [22]: 100%
- Activity [14]: Active
- Activity [17]: inactive
- Activity [23]: 20%
- Activity [24]: 50%
- Activity [25]: 100%

SMILES: COc1ccc(CC(N)C(=O)N[C@H]2[C@@H](O)[C@H](n3cnc4c(N(C)C)ncnc43)O[C@@H]2CO)cc1 (single isomer, unassigned) [PUROMYCIN]
- IC50 [4]: 230 nM
- IC50 [15]: 0.21 µM
- IC50 [16]: 79.3 µM
- IC50 [5]: 0.22 µM
- IC50 [6]: 26.8 µM
- IC50 [7]: 83.9 µM

SMILES: COc1cccc2c1C(=O)c1c(O)c3c(c(O)c1C2=O)C[C@@](O)(C(=O)CO)C[C@@H]3O[C@H]1C[C@H](N)[C@H](O)[C@H](C)O1 [DOXORUBICIN]
- IC50 [15]: 0.18 µM
- IC50 [16]: 32 µM

SMILES: CC(=O)O[C@H]1C(=O)[C@@]2(C)[C@H]([C@H](OC(=O)c3ccccc3)[C@]3(O)C[C@H](OC(=O)[C@H](O)[C@@H](NC(=O)c4ccccc4)c4ccccc4)C(C)=C1C3(C)C)[C@]1(OC(C)=O)CO[C@@H]1C[C@@H]2O [PACLITAXEL]
- IC50 [4]: 7 nM
- IC50 [15]: 0.002 µM
- IC50 [16]: 8 µM
- IC50 [6]: 4.14 µM
- IC50 [7]: 4.15 µM

SMILES: CC[C@]1(O)C[C@@H]2CN(CCc3c([nH]c4ccccc34)[C@@](C(=O)OC)(c3cc4c(cc3OC)N(C)[C@H]3[C@@](O)(C(=O)OC)[C@H](OC(C)=O)[C@]5(CC)C=CCN6CC[C@]43[C@@H]65)C2)C1 [VINBLASTINE]
- IC50 [4]: 0.07 nM
- IC50 [15]: 0.00011 µM
- IC50 [16]: 1.04 µM
- IC50 [5]: 0.00088 µM
- IC50 [6]: 0.17 µM
- IC50 [7]: 0.44 µM
